Activity calls are given as the source filed them. No cut-off for these calls is given here.
Key:
[1] = target: T1, Metabotropic glutamate receptor 3 (Homo sapiens, UniProt Q14832); test: Antagonist activity at recombinant human mGlu3 receptor expressed in hamster AV12 cells co-expressing human EAAT1 assessed as reduction of DCG-4-inhibited forskolin-stimulated cAMP formation after 20 mins by HTRF assay; type: functional, cell-based
[2] = target: T2, Metabotropic glutamate receptor 2 (Homo sapiens, UniProt Q14416); test: Antagonist activity at recombinant human mGlu2 receptor expressed in hamster AV12 cells co-expressing human EAAT1 assessed as reduction of DCG-4-inhibited forskolin-stimulated cAMP formation after 20 mins by HTRF assay; type: functional, cell-based
[3] = target: T2, Metabotropic glutamate receptor 2; test: Antagonist activity at recombinant human mGlu2 receptor expressed in hamster AV12 cells assessed as inhibition of DCG-4-inhibited forskolin-stimulated cAMP formation up to 25 uM after 20 min by HTRF assay relative to control; type: functional, cell-based
Target sequence in this assay (Q14416 19-872 limits assumed): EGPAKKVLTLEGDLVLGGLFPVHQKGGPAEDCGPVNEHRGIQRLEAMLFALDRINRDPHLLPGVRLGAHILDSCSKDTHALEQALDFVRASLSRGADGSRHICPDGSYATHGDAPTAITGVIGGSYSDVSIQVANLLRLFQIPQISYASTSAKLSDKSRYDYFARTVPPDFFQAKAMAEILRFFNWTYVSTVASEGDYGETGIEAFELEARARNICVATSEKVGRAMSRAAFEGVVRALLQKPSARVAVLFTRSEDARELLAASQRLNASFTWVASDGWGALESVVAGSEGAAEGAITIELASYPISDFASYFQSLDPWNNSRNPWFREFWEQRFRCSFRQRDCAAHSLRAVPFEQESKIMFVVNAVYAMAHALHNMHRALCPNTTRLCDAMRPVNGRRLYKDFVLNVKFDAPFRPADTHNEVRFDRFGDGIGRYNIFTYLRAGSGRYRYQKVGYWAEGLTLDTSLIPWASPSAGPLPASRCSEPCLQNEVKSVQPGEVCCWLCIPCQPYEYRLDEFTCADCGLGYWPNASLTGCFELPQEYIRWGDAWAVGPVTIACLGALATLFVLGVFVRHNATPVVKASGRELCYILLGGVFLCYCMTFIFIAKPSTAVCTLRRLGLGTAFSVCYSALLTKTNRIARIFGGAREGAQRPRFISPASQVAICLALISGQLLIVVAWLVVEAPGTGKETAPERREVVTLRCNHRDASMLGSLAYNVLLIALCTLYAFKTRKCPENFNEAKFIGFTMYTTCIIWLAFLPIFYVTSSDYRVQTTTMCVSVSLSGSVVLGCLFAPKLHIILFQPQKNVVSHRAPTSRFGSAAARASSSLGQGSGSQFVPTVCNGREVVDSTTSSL

[4] = target: T1, Metabotropic glutamate receptor 3; test: Antagonist activity at recombinant human mGlu3 receptor expressed in hamster AV12 cells assessed as inhibition of DCG-4-inhibited forskolin-stimulated cAMP formation up to 25 uM after 20 mins by HTRF assay relative to control; type: functional, cell-based
Target sequence in this assay (Q14832 23-879 limits assumed): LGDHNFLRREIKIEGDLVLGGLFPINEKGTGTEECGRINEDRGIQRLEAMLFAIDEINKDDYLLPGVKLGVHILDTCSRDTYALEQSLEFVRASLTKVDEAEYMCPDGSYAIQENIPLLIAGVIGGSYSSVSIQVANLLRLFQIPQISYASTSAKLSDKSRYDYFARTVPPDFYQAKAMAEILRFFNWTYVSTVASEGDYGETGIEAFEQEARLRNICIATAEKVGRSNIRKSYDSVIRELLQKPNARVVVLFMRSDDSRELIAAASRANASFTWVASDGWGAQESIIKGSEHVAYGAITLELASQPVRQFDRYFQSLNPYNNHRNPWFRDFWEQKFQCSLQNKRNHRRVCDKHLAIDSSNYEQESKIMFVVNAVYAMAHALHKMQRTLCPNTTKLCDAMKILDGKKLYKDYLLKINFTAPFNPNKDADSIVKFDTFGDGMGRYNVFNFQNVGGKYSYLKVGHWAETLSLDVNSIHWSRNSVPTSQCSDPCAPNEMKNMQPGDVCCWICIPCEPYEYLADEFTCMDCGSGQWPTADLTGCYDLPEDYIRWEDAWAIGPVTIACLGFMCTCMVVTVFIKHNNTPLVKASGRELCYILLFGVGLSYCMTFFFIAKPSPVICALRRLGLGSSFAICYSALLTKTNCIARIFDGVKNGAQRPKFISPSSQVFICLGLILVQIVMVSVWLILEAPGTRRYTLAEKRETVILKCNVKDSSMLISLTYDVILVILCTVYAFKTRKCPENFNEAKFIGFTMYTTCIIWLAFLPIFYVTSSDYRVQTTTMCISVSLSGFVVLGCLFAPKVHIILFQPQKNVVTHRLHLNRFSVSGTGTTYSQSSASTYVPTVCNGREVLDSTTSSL

[5] = target: T2, Metabotropic glutamate receptor 2; test: Displacement of [3H]-LY459477 from human mGlu2 receptor expressed in hamster AV12 cell membranes co-expressing human EAAT1 after 90 mins by liquid scintillation counting method
Target sequence in this assay (Q14416 whole entry): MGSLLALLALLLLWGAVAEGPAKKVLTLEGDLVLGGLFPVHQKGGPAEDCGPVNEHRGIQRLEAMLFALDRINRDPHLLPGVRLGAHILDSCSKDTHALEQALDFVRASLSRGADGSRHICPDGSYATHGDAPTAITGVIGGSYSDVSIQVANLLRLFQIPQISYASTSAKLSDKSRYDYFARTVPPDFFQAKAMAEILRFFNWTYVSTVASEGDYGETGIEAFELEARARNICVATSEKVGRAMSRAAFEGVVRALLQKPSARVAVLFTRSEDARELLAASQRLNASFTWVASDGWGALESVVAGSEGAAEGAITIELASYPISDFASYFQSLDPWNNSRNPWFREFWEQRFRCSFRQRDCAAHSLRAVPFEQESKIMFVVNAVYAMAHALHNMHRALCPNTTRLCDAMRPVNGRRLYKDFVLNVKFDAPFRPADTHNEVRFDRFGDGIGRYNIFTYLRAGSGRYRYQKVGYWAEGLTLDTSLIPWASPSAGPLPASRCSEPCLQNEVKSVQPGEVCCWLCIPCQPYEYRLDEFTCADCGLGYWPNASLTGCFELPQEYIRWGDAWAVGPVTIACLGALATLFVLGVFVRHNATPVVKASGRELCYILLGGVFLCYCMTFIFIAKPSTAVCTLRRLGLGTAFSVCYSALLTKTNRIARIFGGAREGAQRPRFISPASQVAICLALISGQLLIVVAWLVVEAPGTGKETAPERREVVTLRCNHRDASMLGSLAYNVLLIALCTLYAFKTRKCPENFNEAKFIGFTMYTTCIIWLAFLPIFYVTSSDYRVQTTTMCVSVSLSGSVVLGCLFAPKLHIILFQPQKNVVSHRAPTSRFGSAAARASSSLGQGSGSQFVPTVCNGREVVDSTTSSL

[6] = Antidepressant activity in ip dosed NIH Swiss Webster mouse assessed as reduction in immobility time administered 30 mins prior to evaluation measured on the last 4 mins of the 6 mins observation time by forced swim test; type: functional, organism-based
[7] = Antidepressant activity in ip dosed NIH Swiss Webster mouse assessed as reduction in immobility time administered 30 mins prior to evaluation measured on the last 4 mins of the 6 mins observation time by forced swim test realtive to control; type: functional, organism-based
[8] = target: T1, Metabotropic glutamate receptor 3; test: Displacement of [3H]-LY459477 from human mGlu3 receptor expressed in hamster AV12 cell membranes co-expressing human EAAT1 after 90 mins by liquid scintillation counting method
Target sequence in this assay (Q14832 whole entry): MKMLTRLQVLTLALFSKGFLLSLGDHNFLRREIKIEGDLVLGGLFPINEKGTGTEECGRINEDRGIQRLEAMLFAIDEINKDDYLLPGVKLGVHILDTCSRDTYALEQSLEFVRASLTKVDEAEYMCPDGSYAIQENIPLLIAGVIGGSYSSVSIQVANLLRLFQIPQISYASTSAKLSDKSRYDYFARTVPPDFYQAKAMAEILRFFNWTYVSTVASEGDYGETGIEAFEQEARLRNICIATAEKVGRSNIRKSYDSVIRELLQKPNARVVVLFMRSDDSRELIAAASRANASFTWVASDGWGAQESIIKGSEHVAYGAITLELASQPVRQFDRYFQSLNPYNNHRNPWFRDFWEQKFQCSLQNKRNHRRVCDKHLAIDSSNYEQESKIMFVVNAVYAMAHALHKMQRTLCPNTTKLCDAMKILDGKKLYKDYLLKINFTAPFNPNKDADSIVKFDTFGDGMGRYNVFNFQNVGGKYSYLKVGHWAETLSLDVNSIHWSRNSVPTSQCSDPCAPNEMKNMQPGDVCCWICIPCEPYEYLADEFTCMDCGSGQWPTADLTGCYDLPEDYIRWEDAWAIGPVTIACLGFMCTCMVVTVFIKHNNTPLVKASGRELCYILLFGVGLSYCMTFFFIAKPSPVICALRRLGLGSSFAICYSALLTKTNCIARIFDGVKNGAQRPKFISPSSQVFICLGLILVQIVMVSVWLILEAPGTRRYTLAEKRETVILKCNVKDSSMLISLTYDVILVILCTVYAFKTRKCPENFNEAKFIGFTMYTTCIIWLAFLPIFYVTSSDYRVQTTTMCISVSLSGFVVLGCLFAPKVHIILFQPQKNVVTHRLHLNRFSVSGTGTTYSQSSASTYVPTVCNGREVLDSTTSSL

Compound	IC50 [1] [nM]	Imax [1] [%]	IC50 [2] [nM]	Imax [2] [%]	inhibition [3]	inhibition [4]	Ki [5] [nM]	Ki [8] [nM]	ED60 [6] [mg/kg]	MED [6] [mg/kg]	Emax [7] [%]
N[C@]1(C(=O)O)[C@@H]2[C@@H](C(=O)O)[C@@H]2[C@@H](O)[C@H]1OCc1ccc(Cl)cc1	145	> 94	210	> 94	Active	Active	–	–	–	–	–
N[C@]1(C(=O)O)[C@@H]2[C@@H](C(=O)O)[C@@H]2[C@@H](O)[C@H]1OCc1cccc(Cl)c1	178	> 94	280	> 94	Active	Active	–	–	–	–	–
[N-]=[N+]=N[C@H]1[C@H]2[C@H](C(=O)O)[C@H]2[C@](N)(C(=O)O)[C@@H]1OCc1ccc(Cl)c(Cl)c1	54.1	> 94	34.5	> 94	Active	Active	–	–	–	–	–
COC(=O)N[C@H]1[C@H]2[C@H](C(=O)O)[C@H]2[C@](N)(C(=O)O)[C@@H]1OCc1ccc(Cl)c(Cl)c1	20.5	> 94	18.8	> 94	Active	Active	–	–	7.95	10	46
N[C@]1(C(=O)O)[C@@H]2[C@@H](C(=O)O)[C@@H]2[C@@H](O)[C@H]1OCc1cccc(Cl)c1Cl	83.2	> 94	–	–	–	Active	–	–	–	–	–
N[C@]1(C(=O)O)[C@@H]2[C@@H](C(=O)O)[C@@H]2[C@@H](O)[C@H]1OCc1ccc(Cl)c(F)c1	127	> 94	–	–	–	Active	–	–	–	–	–
N[C@@]1(C(=O)O)C[C@@H](O)[C@H]2[C@H](C(=O)O)[C@H]21	–	–	–	–	–	–	166	–	–	–	–
N[C@@]1(C(=O)O)C[C@H](O)[C@H]2[C@H](C(=O)O)[C@H]21	–	–	–	–	–	–	230	–	–	–	–
N[C@@]1(C(=O)O)[C@H](Cc2ccc(F)c(Cl)c2)C[C@H]2[C@H](C(=O)O)[C@H]21 (racemic)	76.1	–	–	–	–	–	–	–	–	–	–
N[C@]1(C(=O)O)[C@@H]2[C@@H](C(=O)O)[C@@H]2[C@@H](O)[C@H]1OCc1ccccc1	239	> 94	–	–	–	Active	–	–	–	–	–
N[C@]1(C(=O)O)[C@@H]2[C@@H](C(=O)O)[C@@H]2[C@@H](O)[C@H]1OCc1cc(Cl)ccc1Cl	185	> 94	–	–	–	Active	–	–	–	–	–
Cc1cc(CO[C@@H]2[C@H](O)[C@H]3[C@H](C(=O)O)[C@H]3[C@]2(N)C(=O)O)ccc1F	85	> 94	–	–	–	Active	–	–	–	–	–

Second part, led by results:

IC50 [1] [nM]	Imax [1] [%]	IC50 [2] [nM]	Imax [2] [%]	inhibition [3]	inhibition [4]	Ki [5] [nM]	Ki [8] [nM]	Compound	ED60 [6] [mg/kg]	MED [6] [mg/kg]	Emax [7] [%]
153	> 94	169	> 94	Active	Active	76	–	N[C@]1(C(=O)O)[C@@H]2[C@@H](C(=O)O)[C@@H]2[C@@H](O)[C@H]1OCc1ccc(Cl)c(Cl)c1	–	–	–
71	> 94	–	–	–	Active	–	–	N[C@]1(C(=O)O)[C@@H]2[C@@H](C(=O)O)[C@@H]2[C@H](F)[C@H]1OCc1ccc(Cl)c(Cl)c1	–	–	–
29.6	> 94	19.9	> 94	Active	Active	–	–	Cn1ncnc1S[C@H]1[C@H]2[C@H](C(=O)O)[C@H]2[C@](N)(C(=O)O)[C@@H]1OCc1ccc(Cl)c(Cl)c1	7.3	10	47
23.5	> 94	12.7	> 94	Active	Active	7.43	2.7	N[C@]1(C(=O)O)[C@@H]2[C@@H](C(=O)O)[C@@H]2[C@H](Sc2nc[nH]n2)[C@H]1OCc1ccc(Cl)c(Cl)c1	2.08	3	62
1070	> 94	1130	> 94	Active	Active	–	–	N[C@H]1[C@H]2[C@H](C(=O)O)[C@H]2[C@](N)(C(=O)O)[C@@H]1OCc1ccc(Cl)c(Cl)c1	–	–	–
38.5	> 94	–	–	–	Active	–	–	N[C@]1(C(=O)O)[C@@H]2[C@@H](C(=O)O)[C@@H]2[C@H](Sc2ncc[nH]2)[C@H]1OCc1ccc(Cl)c(Cl)c1	9.1	10	41
14.3	> 94	26.1	> 94	Active	Active	–	–	CC(=O)N[C@H]1[C@H]2[C@H](C(=O)O)[C@H]2[C@](N)(C(=O)O)[C@@H]1OCc1ccc(Cl)c(Cl)c1	9.1	30	41

Reference: ChEMBL document CHEMBL3868610, “Novel bicyclo[3.1.0]hexane analogs as antagonists of metabotropic glutamate 2/3 receptors for the treatment of depression” (Bioorg Med Chem Lett, 2016)
